Source: patent publication US20110071108A1, “Beta-Cyclodextrin Derivatives as Antibacterial Agents” (Pinnacle Pharmaceuticals, Inc., priority 2005, published 2011)

Legend:
Bacillus atrophaeus = assay: Bacterial panel testing, MIC by broth microdilution; assay type: cell-based; details: 20-24 hours growth
Summary of the method: (§1)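 Strains grown 2-4 h at 37 °C in Mueller-Hinton or Brain Heart infusion broth, standardized to McFarland density and diluted. Compound (10 μg/ml in DMSO) serially two-fold diluted across plate in inoculated media; rifampicin control. Growth 20-24 h, clear wells scored for MIC.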

Enterococcus faecium = assay: as above; assay type: cell-based; details: 20-24 hours growth
Summary of the method: as §1

Eschericia coli = assay: as above; assay type: cell-based; details: 20-24 hours growth
Summary of the method: as §1

Pseudomonas aeruginosa = assay: as above; assay type: cell-based; details: 20-24 hours growth
Summary of the method: as §1

Salmonella choleraesuis = assay: as above; assay type: cell-based; details: 20-24 hours growth
Summary of the method: as §1

Staphylococcus aureus = assay: as above; assay type: cell-based; details: 20-24 hours growth
Summary of the method: as §1

Lungs cancer cells A549 = assay: Mammalian cytotoxicity

Row | Structure (SMILES) | MIC BA (Bacillus atrophaeus) | MIC EF (Enterococcus faecium) | MIC EC (Eschericia coli) | MIC PA (Pseudomonas aeruginosa) | MIC SC (Salmonella choleraesuis) | MIC SA (Staphylococcus aureus) | Mammalian Cytotoxicity IC50 (Lungs cancer cells A549)
1 | OC[C@H]1O[C@@H]2O[C@H]3[C@H](O)[C@@H](O)[C@@H](O[C@H]4[C@H](O)[C@@H](O)[C@@H](O[C@H]5[C@H](O)[C@@H](O)[C@@H](O[C@H]6[C@H](O)[C@@H](O)[C@@H](O[C@H]7[C@H](O)[C@@H](O)[C@@H](O[C@H]8[C@H](O)[C@@H](O)[C@@H](O[C@H]1[C@H](O)[C@H]2O)O[C@@H]8CO)O[C@@H]7CO)O[C@@H]6CO)O[C@@H]5CO)O[C@@H]4CO)O[C@@H]3CO | >200 µg/mL | >200 µg/mL | >200 µg/mL | >200 µg/mL | >200 µg/mL | >200 µg/mL | 
2 | O[C@@H]1[C@@H](O)[C@H]2O[C@H]3[C@H](O)[C@@H](O)[C@@H](O[C@H]4[C@H](O)[C@@H](O)[C@@H](O[C@H]5[C@H](O)[C@@H](O)[C@@H](O[C@H]6[C@H](O)[C@@H](O)[C@@H](O[C@H]7[C@H](O)[C@@H](O)[C@@H](O[C@H]8[C@H](O)[C@@H](O)[C@@H](O[C@@H]1[C@@H](CNCc1ccccc1)O2)O[C@@H]8CNCc1ccccc1)O[C@@H]7CNCc1ccccc1)O[C@@H]6CNCc1ccccc1)O[C@@H]5CNCc1ccccc1)O[C@@H]4CNCc1ccccc1)O[C@@H]3CNCc1ccccc1 |  |  |  | >200 µg/mL |  |  | 840 µg/mL
3 | Cl.Cl.Cl.Cl.Cl.Cl.Cl.Cl.Cl.Cl.Cl.Cl.Cl.Cl.NC(Cc1cnc[nH]1)C(=O)NCC1OC2OC3C(CNC(=O)C(N)Cc4cnc[nH]4)OC(OC4C(CNC(=O)C(N)Cc5cnc[nH]5)OC(OC5C(CNC(=O)C(N)Cc6cnc[nH]6)OC(OC6C(CNC(=O)C(N)Cc7cnc[nH]7)OC(OC7C(CNC(=O)C(N)Cc8cnc[nH]8)OC(OC8C(CNC(=O)C(N)Cc9cnc[nH]9)OC(OC1C(O)C2O)C(O)C8O)C(O)C7O)C(O)C6O)C(O)C5O)C(O)C4O)C(O)C3O (stereo not drawn) | >200 µg/mL | >200 µg/mL | >200 µg/mL | >200 µg/mL | >200 µg/mL | >200 µg/mL | 
4 | OC1C2OC(CNC(=S)Nc3ccccc3)C(OC3OC(CNC(=S)Nc4ccccc4)C(OC4OC(CNC(=S)Nc5ccccc5)C(OC5OC(CNC(=S)Nc6ccccc6)C(OC6OC(CNC(=S)Nc7ccccc7)C(OC7OC(CNC(=S)Nc8ccccc8)C(OC8OC(CNC(=S)Nc9ccccc9)C(O2)C(O)C8O)C(O)C7O)C(O)C6O)C(O)C5O)C(O)C4O)C(O)C3O)C1O (stereo not drawn) | >200 µg/mL | >200 µg/mL | >200 µg/mL | >200 µg/mL | >200 µg/mL | >200 µg/mL | 
5 | OC1C2OC(CNC(=S)NCc3ccccc3)C(OC3OC(CNC(=S)NCc4ccccc4)C(OC4OC(CNC(=S)NCc5ccccc5)C(OC5OC(CNC(=S)NCc6ccccc6)C(OC6OC(CNC(=S)NCc7ccccc7)C(OC7OC(CNC(=S)NCc8ccccc8)C(OC8OC(CNC(=S)NCc9ccccc9)C(O2)C(O)C8O)C(O)C7O)C(O)C6O)C(O)C5O)C(O)C4O)C(O)C3O)C1O (stereo not drawn) | >200 µg/mL | >200 µg/mL | >200 µg/mL | >200 µg/mL | >200 µg/mL | >200 µg/mL | 
6 | O[C@@H]1[C@@H](O)[C@H]2O[C@H]3[C@H](O)[C@@H](O)[C@@H](O[C@H]4[C@H](O)[C@@H](O)[C@@H](O[C@H]5[C@H](O)[C@@H](O)[C@@H](O[C@H]6[C@H](O)[C@@H](O)[C@@H](O[C@H]7[C@H](O)[C@@H](O)[C@@H](O[C@H]8[C@H](O)[C@@H](O)[C@@H](O[C@@H]1[C@@H](CNCCc1ccccc1)O2)O[C@@H]8CNCCc1ccccc1)O[C@@H]7CNCCc1ccccc1)O[C@@H]6CNCCc1ccccc1)O[C@@H]5CNCCc1ccccc1)O[C@@H]4CNCCc1ccccc1)O[C@@H]3CNCCc1ccccc1 |  |  |  | >200 µg/mL |  |  | 43 µg/mL
7 | O[C@@H]1[C@@H](O)[C@H]2O[C@H]3[C@H](O)[C@@H](O)[C@@H](O[C@H]4[C@H](O)[C@@H](O)[C@@H](O[C@H]5[C@H](O)[C@@H](O)[C@@H](O[C@H]6[C@H](O)[C@@H](O)[C@@H](O[C@H]7[C@H](O)[C@@H](O)[C@@H](O[C@H]8[C@H](O)[C@@H](O)[C@@H](O[C@@H]1[C@@H](CNC1CCN(Cc9ccccc9)CC1)O2)O[C@@H]8CNC1CCN(Cc2ccccc2)CC1)O[C@@H]7CNC1CCN(Cc2ccccc2)CC1)O[C@@H]6CNC1CCN(Cc2ccccc2)CC1)O[C@@H]5CNC1CCN(Cc2ccccc2)CC1)O[C@@H]4CNC1CCN(Cc2ccccc2)CC1)O[C@@H]3CNC1CCN(Cc2ccccc2)CC1 |  |  |  | >200 µg/mL |  |  | 127 µg/mL
8 | CCCCCCNC[C@H]1O[C@@H]2O[C@H]3[C@H](O)[C@@H](O)[C@@H](O[C@H]4[C@H](O)[C@@H](O)[C@@H](O[C@H]5[C@H](O)[C@@H](O)[C@@H](O[C@H]6[C@H](O)[C@@H](O)[C@@H](O[C@H]7[C@H](O)[C@@H](O)[C@@H](O[C@H]8[C@H](O)[C@@H](O)[C@@H](O[C@H]1[C@H](O)[C@H]2O)O[C@@H]8CNCCCCCC)O[C@@H]7CNCCCCCC)O[C@@H]6CNCCCCCC)O[C@@H]5CNCCCCCC)O[C@@H]4CNCCCCCC)O[C@@H]3CNCCCCCC |  |  |  | >200 µg/mL |  |  | 129 µg/mL
9 | CCCCCCCCNC[C@H]1O[C@@H]2O[C@H]3[C@H](O)[C@@H](O)[C@@H](O[C@H]4[C@H](O)[C@@H](O)[C@@H](O[C@H]5[C@H](O)[C@@H](O)[C@@H](O[C@H]6[C@H](O)[C@@H](O)[C@@H](O[C@H]7[C@H](O)[C@@H](O)[C@@H](O[C@H]8[C@H](O)[C@@H](O)[C@@H](O[C@H]1[C@H](O)[C@H]2O)O[C@@H]8CNCCCCCCCC)O[C@@H]7CNCCCCCCCC)O[C@@H]6CNCCCCCCCC)O[C@@H]5CNCCCCCCCC)O[C@@H]4CNCCCCCCCC)O[C@@H]3CNCCCCCCCC |  |  |  | >200 µg/mL |  |  | 123 µg/mL
10 | O[C@@H]1[C@@H](O)[C@H]2O[C@H]3[C@H](O)[C@@H](O)[C@@H](O[C@H]4[C@H](O)[C@@H](O)[C@@H](O[C@H]5[C@H](O)[C@@H](O)[C@@H](O[C@H]6[C@H](O)[C@@H](O)[C@@H](O[C@H]7[C@H](O)[C@@H](O)[C@@H](O[C@H]8[C@H](O)[C@@H](O)[C@@H](O[C@@H]1[C@@H](CNc1ncccc1OCc1ccccc1)O2)O[C@@H]8CNc1ncccc1OCc1ccccc1)O[C@@H]7CNc1ncccc1OCc1ccccc1)O[C@@H]6CNc1ncccc1OCc1ccccc1)O[C@@H]5CNc1ncccc1OCc1ccccc1)O[C@@H]4CNc1ncccc1OCc1ccccc1)O[C@@H]3CNc1ncccc1OCc1ccccc1 |  |  | >200 µg/mL | >200 µg/mL | >200 µg/mL |  | 398 µg/mL
11 | OC1C2OC(CNc3nc4ccccc4s3)C(OC3OC(CNc4nc5ccccc5s4)C(OC4OC(CNc5nc6ccccc6s5)C(OC5OC(CNc6nc7ccccc7s6)C(OC6OC(CNc7nc8ccccc8s7)C(OC7OC(CNc8nc9ccccc9s8)C(OC8OC(CNc9nc%10ccccc%10s9)C(O2)C(O)C8O)C(O)C7O)C(O)C6O)C(O)C5O)C(O)C4O)C(O)C3O)C1O (stereo not drawn) |  |  | >200 µg/mL | >200 µg/mL | >200 µg/mL |  | 317 µg/mL
12 | OC1C2OC(CNC3CCNCC3)C(OC3OC(CNC4CCNCC4)C(OC4OC(CNC5CCNCC5)C(OC5OC(CNC6CCNCC6)C(OC6OC(CNC7CCNCC7)C(OC7OC(CNC8CCNCC8)C(OC8OC(CNC9CCNCC9)C(O2)C(O)C8O)C(O)C7O)C(O)C6O)C(O)C5O)C(O)C4O)C(O)C3O)C1O (stereo not drawn) |  |  |  | >200 µg/mL | >200 µg/mL |  | 378 µg/mL
13 | Cc1ccc(CNCC2OC3OC4C(CNCc5ccc(C)cc5)OC(OC5C(CNCc6ccc(C)cc6)OC(OC6C(CNCc7ccc(C)cc7)OC(OC7C(CNCc8ccc(C)cc8)OC(OC8C(CNCc9ccc(C)cc9)OC(OC9C(CNCc%10ccc(C)cc%10)OC(OC2C(O)C3O)C(O)C9O)C(O)C8O)C(O)C7O)C(O)C6O)C(O)C5O)C(O)C4O)cc1 (stereo not drawn) |  |  |  | >200 µg/mL | >200 µg/mL |  | 376 µg/mL
14 | C[C@@H](NCC1OC2OC3C(CN[C@H](C)c4ccccc4)OC(OC4C(CN[C@H](C)c5ccccc5)OC(OC5C(CN[C@H](C)c6ccccc6)OC(OC6C(CN[C@H](C)c7ccccc7)OC(OC7C(CN[C@H](C)c8ccccc8)OC(OC8C(CN[C@H](C)c9ccccc9)OC(OC1C(O)C2O)C(O)C8O)C(O)C7O)C(O)C6O)C(O)C5O)C(O)C4O)C(O)C3O)c1ccccc1 (stereo partly drawn) |  |  |  | >200 µg/mL |  |  | 105 µg/mL
15 | OC1C2OC(CNC3CCCCC3)C(OC3OC(CNC4CCCCC4)C(OC4OC(CNC5CCCCC5)C(OC5OC(CNC6CCCCC6)C(OC6OC(CNC7CCCCC7)C(OC7OC(CNC8CCCCC8)C(OC8OC(CNC9CCCCC9)C(O2)C(O)C8O)C(O)C7O)C(O)C6O)C(O)C5O)C(O)C4O)C(O)C3O)C1O (stereo not drawn) |  |  |  | >200 µg/mL | >200 µg/mL |  | 373 µg/mL
16 | COc1cccc(CNCC2OC3OC4C(CNCc5cccc(OC)c5)OC(OC5C(CNCc6cccc(OC)c6)OC(OC6C(CNCc7cccc(OC)c7)OC(OC7C(CNCc8cccc(OC)c8)OC(OC8C(CNCc9cccc(OC)c9)OC(OC9C(CNCc%10cccc(OC)c%10)OC(OC2C(O)C3O)C(O)C9O)C(O)C8O)C(O)C7O)C(O)C6O)C(O)C5O)C(O)C4O)c1 (stereo not drawn) |  |  |  | >200 µg/mL |  |  | 282 µg/mL
17 | COc1ccccc1CNCC1OC2OC3C(CNCc4ccccc4OC)OC(OC4C(CNCc5ccccc5OC)OC(OC5C(CNCc6ccccc6OC)OC(OC6C(CNCc7ccccc7OC)OC(OC7C(CNCc8ccccc8OC)OC(OC8C(CNCc9ccccc9OC)OC(OC1C(O)C2O)C(O)C8O)C(O)C7O)C(O)C6O)C(O)C5O)C(O)C4O)C(O)C3O (stereo not drawn) |  |  |  | >200 µg/mL |  |  | 297 µg/mL
18 | COc1ccc(CNCC2OC3OC4C(CNCc5ccc(OC)cc5)OC(OC5C(CNCc6ccc(OC)cc6)OC(OC6C(CNCc7ccc(OC)cc7)OC(OC7C(CNCc8ccc(OC)cc8)OC(OC8C(CNCc9ccc(OC)cc9)OC(OC9C(CNCc%10ccc(OC)cc%10)OC(OC2C(O)C3O)C(O)C9O)C(O)C8O)C(O)C7O)C(O)C6O)C(O)C5O)C(O)C4O)cc1 (stereo not drawn) |  |  |  | >200 µg/mL | >200 µg/mL |  | 297 µg/mL
